These results are taken from patent publication US20070276025A1, “Indirubin-Type Compounds, Compositions, and Methods for Their Use” (priority 2003, published 2007).

Read-outs that look alike come from different tables or passages of the source.

In one data set the target is CDK1/cyclin B. Kind of data set: CDK1/cyclin B kinase assay (histone H1, 15 μM ATP). The format is biochemical, starfish (Marthasterias glacialis).
In a further data set the target is CDK5/p25 (Homo sapiens, UniProt Q00535). Kind of data set: CDK5/p25 kinase assay (histone H1, 15 μM ATP). In kind it is biochemical, mammalian.
Sequence of CDK5/p25 (Q00535 whole entry, species assumed): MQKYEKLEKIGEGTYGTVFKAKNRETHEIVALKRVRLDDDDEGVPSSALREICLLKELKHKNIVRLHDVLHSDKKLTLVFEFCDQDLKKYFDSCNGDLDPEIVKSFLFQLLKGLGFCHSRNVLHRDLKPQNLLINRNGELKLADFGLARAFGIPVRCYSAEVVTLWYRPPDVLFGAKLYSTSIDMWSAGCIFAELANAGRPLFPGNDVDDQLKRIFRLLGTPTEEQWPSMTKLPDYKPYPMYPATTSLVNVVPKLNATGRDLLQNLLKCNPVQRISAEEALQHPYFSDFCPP
Sequence of CDK5/p25 (Q15078 99-307 partner limits assumed, species assumed): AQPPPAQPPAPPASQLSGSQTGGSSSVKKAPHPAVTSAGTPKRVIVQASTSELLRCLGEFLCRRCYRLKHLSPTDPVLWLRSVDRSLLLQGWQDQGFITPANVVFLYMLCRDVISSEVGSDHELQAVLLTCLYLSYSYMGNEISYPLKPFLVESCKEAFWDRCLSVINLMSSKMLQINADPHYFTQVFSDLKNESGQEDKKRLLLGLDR
The target of data set [1] is T1, AhR (Mus musculus, UniProt P30561).
T1 sequence (P30561 1-848): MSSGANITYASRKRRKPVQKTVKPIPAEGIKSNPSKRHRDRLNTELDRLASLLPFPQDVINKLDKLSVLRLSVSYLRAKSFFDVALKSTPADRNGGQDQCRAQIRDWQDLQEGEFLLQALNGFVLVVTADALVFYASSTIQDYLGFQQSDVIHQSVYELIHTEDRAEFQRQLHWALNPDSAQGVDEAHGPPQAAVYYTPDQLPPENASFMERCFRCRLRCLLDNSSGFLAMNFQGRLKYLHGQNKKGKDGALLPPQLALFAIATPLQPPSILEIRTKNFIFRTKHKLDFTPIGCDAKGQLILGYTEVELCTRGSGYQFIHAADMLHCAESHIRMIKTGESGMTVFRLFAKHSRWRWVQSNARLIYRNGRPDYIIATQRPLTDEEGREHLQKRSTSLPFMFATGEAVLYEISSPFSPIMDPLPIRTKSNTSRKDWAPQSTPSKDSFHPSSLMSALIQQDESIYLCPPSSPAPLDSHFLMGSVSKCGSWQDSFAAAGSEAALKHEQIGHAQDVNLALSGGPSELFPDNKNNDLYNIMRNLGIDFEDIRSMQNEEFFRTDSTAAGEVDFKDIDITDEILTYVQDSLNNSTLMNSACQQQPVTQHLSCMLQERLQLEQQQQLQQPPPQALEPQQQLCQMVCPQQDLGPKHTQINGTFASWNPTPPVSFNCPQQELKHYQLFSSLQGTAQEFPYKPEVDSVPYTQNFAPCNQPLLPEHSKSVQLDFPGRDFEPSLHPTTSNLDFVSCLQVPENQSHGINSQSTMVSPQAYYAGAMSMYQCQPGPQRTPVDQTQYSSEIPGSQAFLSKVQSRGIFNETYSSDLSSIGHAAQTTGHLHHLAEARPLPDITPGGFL
The note with it: read-out: EC50 AhR (hepatoma cell line); Table 4; EGFP at 24 hours.

Data set [2] concerns the target AhR (Homo sapiens, UniProt P35869). Kind of data set: Yeast AhR reporter assay (β-galactosidase). Particulars: read-out: EC50 AhR (yeast); Table 4; * = inactive at the indicated highest concentration tested. On the technique in general: Reporter assays use an easily measured gene product as a stand-in for the process of interest.
In another data set the target is GSK-3α/β. Kind of data set: GSK-3α/β kinase assay (GS-1 peptide, 15 μM ATP). The format is biochemical, porcine.
The mark [3] stands for this setting: Table 4, read-out: IC50 CDK1/cycin B.
Where [4] appears, read: Table 5, read-out: IC50 CDK1/cyclin B.
The mark [5] stands for this setting: Table 5, read-out: IC50 CDK5/p25.
Where [6] appears, read: Table 7, GSK-3, read-out: IC50exp.
Where [7] appears, read: Table 1, read-out: IC50 CDK5/p25.
Setting [8] is: Table 5, read-out: IC50 GSK-3α/β.
[9] abbreviates: Table 1, read-out: IC50 GSK-3 α/β.
Setting [10] is: Table 1, read-out: IC50 CDK1/cyclin B.
[11] abbreviates: Table 6, read-out: GSK-3 (IC50 μM).
[12] abbreviates: Table 6, read-out: CDK-5 (IC50 μM).

Sequence of AhR (Homo sapiens, UniProt P35869) (P35869 11-848): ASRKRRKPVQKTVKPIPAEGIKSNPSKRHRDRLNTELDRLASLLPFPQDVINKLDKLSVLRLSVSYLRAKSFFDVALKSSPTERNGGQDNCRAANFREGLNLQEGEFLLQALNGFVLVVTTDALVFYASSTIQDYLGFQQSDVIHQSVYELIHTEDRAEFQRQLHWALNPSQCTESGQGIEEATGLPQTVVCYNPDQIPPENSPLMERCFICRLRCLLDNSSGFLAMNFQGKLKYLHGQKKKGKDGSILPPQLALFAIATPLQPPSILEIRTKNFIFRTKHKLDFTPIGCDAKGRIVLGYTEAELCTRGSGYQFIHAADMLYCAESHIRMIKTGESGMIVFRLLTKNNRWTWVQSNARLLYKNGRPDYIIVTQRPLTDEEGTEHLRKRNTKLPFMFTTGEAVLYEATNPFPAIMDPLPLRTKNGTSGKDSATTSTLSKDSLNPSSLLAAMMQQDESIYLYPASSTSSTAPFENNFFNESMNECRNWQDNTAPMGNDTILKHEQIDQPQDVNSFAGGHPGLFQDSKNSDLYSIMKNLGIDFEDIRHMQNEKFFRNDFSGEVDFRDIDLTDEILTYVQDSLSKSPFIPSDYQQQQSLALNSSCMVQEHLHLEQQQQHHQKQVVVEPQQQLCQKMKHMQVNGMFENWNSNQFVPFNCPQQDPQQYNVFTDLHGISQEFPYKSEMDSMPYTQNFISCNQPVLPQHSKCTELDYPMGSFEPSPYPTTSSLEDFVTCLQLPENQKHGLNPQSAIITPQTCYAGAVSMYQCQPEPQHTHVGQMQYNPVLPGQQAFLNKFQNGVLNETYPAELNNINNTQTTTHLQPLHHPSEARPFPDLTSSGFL
Sequence of AhR (Homo sapiens, UniProt P35869) (P27540 whole entry partner): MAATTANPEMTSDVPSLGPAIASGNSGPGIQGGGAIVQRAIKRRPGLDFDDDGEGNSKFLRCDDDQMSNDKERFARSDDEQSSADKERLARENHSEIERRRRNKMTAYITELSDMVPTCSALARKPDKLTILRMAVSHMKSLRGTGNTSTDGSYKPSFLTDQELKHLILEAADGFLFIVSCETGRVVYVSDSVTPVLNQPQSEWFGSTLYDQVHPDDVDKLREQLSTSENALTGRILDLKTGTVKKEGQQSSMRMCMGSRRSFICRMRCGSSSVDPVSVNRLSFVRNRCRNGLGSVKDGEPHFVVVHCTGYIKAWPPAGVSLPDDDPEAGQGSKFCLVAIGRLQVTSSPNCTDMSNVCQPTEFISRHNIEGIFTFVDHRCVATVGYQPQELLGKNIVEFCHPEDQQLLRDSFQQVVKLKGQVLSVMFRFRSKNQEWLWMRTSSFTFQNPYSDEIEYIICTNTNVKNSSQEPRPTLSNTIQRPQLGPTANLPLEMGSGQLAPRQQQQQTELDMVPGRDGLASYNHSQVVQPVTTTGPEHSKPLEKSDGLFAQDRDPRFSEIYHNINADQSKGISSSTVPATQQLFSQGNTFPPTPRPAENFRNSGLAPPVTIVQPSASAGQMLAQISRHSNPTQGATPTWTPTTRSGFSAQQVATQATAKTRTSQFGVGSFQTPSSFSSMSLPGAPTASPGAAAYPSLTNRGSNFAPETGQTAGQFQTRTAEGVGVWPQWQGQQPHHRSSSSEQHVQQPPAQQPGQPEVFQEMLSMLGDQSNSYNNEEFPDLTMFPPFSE

By EC50 is commonly meant the midpoint of the concentration-response curve. For 6-Chloroindirubin [5d], the IC50 at CDK1/cyclin B (setting [3]) is over 100000 nM; on CDK1/cyclin B (setting [4]), over 100000 nM; at CDK5/p25 (setting [5]), over 100 µM. Besides, the values for the EC50 at AhR [1] and at AhR [2] were 7 nM and 30 nM, respectively.

On to `O=C1Nc2ccc(F)cc2C1=C1Nc2ccccc2C1=O` [5-Fluoroindirubin, reference compound], for which the IC50 at GSK-3α/β (setting [6]) amounted to 0.078 µM.

In the case of `O=C1Nc2ccc([N+](=O)[O-])cc2C1=C1Nc2ccccc2C1=O` [5-Nitroindirubin, reference compound], the IC50 at GSK-3α/β (setting [6]) is 0.042 µM.

As to `O=C1Nc2cc(Br)ccc2C1=C1Nc2ccccc2C1=O` [5a, 6-Bromoindirubin], the IC50 at CDK5/p25 (setting [7]) and on CDK5/p25 (setting [5]) was 53 µM each time. The EC50 worked out at 8 nM on AhR [1] and 20 nM at AhR [2].

Take `O=C1Nc2cc(F)ccc2/C1=C1/Nc2ccccc2C1=O` [5b, 6-Fluoroindirubin]: the IC50 at CDK5/p25 (setting [5]) came out at 1 µM.

For `O=C1Nc2cc(I)ccc2/C1=C1/Nc2ccccc2C1=O` [5c, 6-Iodoindirubin], the IC50 turned out to be 0.055 µM at GSK-3α/β (Table 4, read-out: IC50 GSK-3); 0.055 µM at GSK-3α/β (setting [8]); 0.055 µM at GSK-3α/β (setting [6]); 1600 nM at CDK1/cyclin B (setting [3]); 1600 nM at CDK1/cyclin B (setting [4]); 5.3 µM at CDK5/p25 (setting [5]). Moreover, the figures for the EC50 at AhR [1] and on AhR [2] were 17 nM and 40 nM, respectively.

Consider `O=C1Nc2cc(Cl)c(Cl)cc2/C1=C1/Nc2ccccc2C1=O` [5e, 5,6-Dichloroindirubin], for which the IC50 is 0.03 µM on GSK-3α/β (setting [8]), 0.03 µM at GSK-3α/β (setting [6]), 45000 nM on CDK1/cyclin B (setting [4]) and 60 µM on CDK5/p25 (setting [5]).

As for `Cc1cc2c(cc1Br)NC(=O)C2=C1Nc2ccccc2C1=O` [5f, 6-Bromo-5-methylindirubin], the IC50 at GSK-3α/β (setting [8]) was 0.025 µM; at GSK-3α/β (setting [6]), 0.025 µM; at CDK1/cyclin B (setting [4]), 30000 nM; on CDK5/p25 (setting [5]), 60 µM.

Consider `O=C1Nc2cc(Br)c([N+](=O)[O-])cc2C1=C1Nc2ccccc2C1=O` [5g, 6-Bromo-5-nitroindirubin], for which the IC50 on GSK-3α/β (setting [8]) is 0.1 µM; at GSK-3α/β (setting [6]), 0.1 µM; at CDK1/cyclin B (setting [4]), over 100000 nM; on CDK5/p25 (setting [5]), over 100 µM.

`C=Cc1ccc2c(c1)NC(=O)/C2=C1\Nc2ccccc2C1=O` [5i, 6-Vinylindirubin]: the figures for the IC50 on GSK-3α/β (setting [8]), at CDK1/cyclin B (setting [4]) and at CDK5/p25 (setting [5]) were 0.24 µM, 4200 nM and 2.4 µM, respectively.

For the compound `O=C1Nc2cc(F)ccc2C1=C1Nc2ccccc2C1=NO` [7b, 6-Fluoroindirubin-3′-oxime], the IC50 at GSK-3α/β (setting [8]) is 0.13 µM; on GSK-3α/β (setting [6]) it was 0.13 µM; on CDK1/cyclin B (setting [4]), 320 nM; at CDK5/p25 (setting [5]), 0.15 µM.

Take `O=C1Nc2cc(I)ccc2C1=C1Nc2ccccc2C1=NO` [7c, 6-Iodoindirubin-3′-oxime]: on CDK5/p25 (setting [5]), the IC50 is 0.3 µM. Further, the results for the concentration for a half-maximal effect (EC50) at AhR [1] and on AhR [2] were 440 nM and over 100 nM, respectively.

Take `O=C1Nc2cc(Cl)ccc2C1=C1Nc2ccccc2C1=NO` [7d, 6-Chloroindirubin-3′-oxime]: the IC50 at GSK-3α/β (Table 4, read-out: IC50 GSK-3) came to 0.02 µM; on GSK-3α/β (setting [8]), 0.02 µM; at GSK-3α/β (setting [6]), 0.02 µM; on CDK1/cyclin B (setting [3]) it was 650 nM; at CDK1/cyclin B (setting [4]), 650 nM; at CDK5/p25 (setting [5]), 0.1 µM. Also, the EC50 on AhR [1] was 200 nM; at AhR [2] it was 4 nM.

On to `Cc1cc2c(cc1Br)NC(=O)C2=C1Nc2ccccc2C1=NO` [7f, 6-Bromo-5-methylindirubin-3′-oxime], for which, at CDK5/p25 (setting [5]), the IC50 was 0.13 µM.

With `O=C1Nc2cc(Br)c([N+](=O)[O-])cc2C1=C1Nc2ccccc2C1=NO` [7g, 6-Bromo-5-nitroindirubin-3′-oxime], the IC50 on CDK5/p25 (setting [5]) came to 0.15 µM.

For `C=Cc1ccc2c(c1)NC(=O)C2=C1Nc2ccccc2C1=NO` [7i, 6-Vinylindirubin-3′-oxime], the values for the IC50 at GSK-3α/β (setting [8]) and on CDK5/p25 (setting [5]) were 0.06 µM and 0.42 µM, respectively.

Turning to `CC(=O)O/N=C1/C(=C2/C(=O)Nc3cc(I)ccc32)Nc2ccccc21` [8c, 6-Iodoindirubin-3′-acetoxime], the IC50 amounted to 0.013 µM at GSK-3α/β (setting [8]), 2200 nM at CDK1/cyclin B (setting [4]) and 1.3 µM on CDK5/p25 (setting [5]).

Turning to `CC(=O)O/N=C1/C(=C2/C(=O)Nc3cc(Cl)ccc32)Nc2ccccc21` [8d, 6-Chloroindirubin-3′-acetoxime], the IC50 on GSK-3α/β (setting [8]) stood at 0.017 µM; on GSK-3α/β (setting [6]), 0.017 µM; at CDK1/cyclin B (setting [4]) it was 30000 nM; on CDK5/p25 (setting [5]) it was 0.2 µM.

For the compound `CC(=O)ON=C1C(=C2C(=O)Nc3cc(Cl)c(Cl)cc32)Nc2ccccc21` [8e, 5,6Dichloroindirubin-3′-acetoxime], the IC50 on GSK-3α/β (setting [8]) is 0.004 µM; on GSK-3α/β (setting [6]), 0.004 µM; on CDK1/cyclin B (setting [4]) it was 30000 nM; on CDK5/p25 (setting [5]) it was 0.1 µM.

For the compound `CC(=O)ON=C1C(=C2C(=O)Nc3cc(Br)c(C)cc32)Nc2ccccc21` [8f, 6-Bromo-5-methylindirubin-3′-acetoxime], the IC50 on GSK-3α/β (setting [8]) was found to be 0.007 µM; at GSK-3α/β (setting [6]), 0.007 µM; at CDK1/cyclin B (setting [4]), 31000 nM; on CDK5/p25 (setting [5]), 30 µM.

For `CC(=O)ON=C1C(=C2C(=O)Nc3cc(Br)c([N+](=O)[O-])cc32)Nc2ccccc21` [8g, 6-Bromo-5-nitroindirubin-3′-acetoxime], the IC50 at GSK-3α/β (setting [8]) is 0.006 µM; at GSK-3α/β (setting [6]), 0.006 µM; on CDK1/cyclin B (setting [4]), 11000 nM; on CDK5/p25 (setting [5]), 31 µM.

As to `C=Cc1ccc2c(c1)NC(=O)C2=C1Nc2ccccc2C1=NOC(C)=O` [8i, 6-vinylindirubin-3′-acetoxime], the IC50 at GSK-3α/β (setting [8]) came to 0.065 µM; on CDK1/cyclin B (setting [4]) it was 1600 nM; on CDK5/p25 (setting [5]) it was 0.4 µM.

For the compound `CON=C1C(=C2C(=O)Nc3ccccc32)Nc2ccccc21` [9b, Indirubin-3′-methoxime], the IC50 at CDK5/p25 (setting [5]) came to 0.4 µM.

Turning to `O=C1Nc2ccccc2/C1=C1/Nc2cc(Br)ccc2C1=O` [12a, 6′-Bromoindirubin], the IC50 at GSK-3α/β (setting [9]) is 22 µM; on GSK-3α/β (Table 4, read-out: IC50 GSK-3) it was 22 µM; on GSK-3α/β (setting [8]), 22 µM; at GSK-3α/β (setting [6]), 22 µM; at CDK1/cyclin B (setting [10]), over 100000 nM; on CDK1/cyclin B (setting [3]) it was over 100000 nM. Besides, the values for the IC50 at CDK1/cyclin B (setting [4]), on CDK5/p25 (setting [7]) and at CDK5/p25 (setting [5]) were over 100000 nM, over 100 µM and over 100 µM, respectively. Moreover, the EC50 on AhR [1] is 1200 nM; at AhR [2], 100 nM.

Turning to `O=C1Nc2cc(Br)ccc2/C1=C1/Nc2cc(Br)ccc2C1=O` [12b, 6,6′-Dibromoindirubin], the IC50 on GSK-3α/β (setting [9]) is 4.5 µM; on GSK-3α/β (Table 4, read-out: IC50 GSK-3), 4.5 µM; on GSK-3α/β (setting [8]), 4.5 µM; at GSK-3α/β (setting [6]), 4.5 µM; at GSK-3α/β (read-out: IC50 with GSK-3), 4.5 µM; at CDK1/cyclin B (setting [10]) it was at least 100000 nM. The IC50 on CDK1/cyclin B (setting [3]) was over 100000 nM; at CDK1/cyclin B (setting [4]), over 100000 nM; on CDK5/p25 (setting [7]), over 100 µM; on CDK5/p25 (setting [5]) it was over 100 µM; on CDK5/p25 (read-out: IC50 with CDK5), over 100 µM. The EC50 on AhR [1] was over 10000 nM.

As for `Nc1ccc2c(c1)C(=C1Nc3ccccc3C1=O)C(=O)N2` [compound 23, 5-Aminoindirubin], the IC50 on GSK-3α/β (setting [11]) worked out at 1.5 µM; against CDK5/p25, 2.6 µM.

In the case of `Nc1ccc2c(c1)/C(=C1/Nc3ccccc3C1=NO)C(=O)N2` [compound 24, 5-Amino-3′-oxime indirubin], the IC50 at GSK-3α/β (setting [11]) turned out to be 0.75 µM; on CDK5/p25 (setting [12]), 0.47 µM.

Turning to `Nc1cc2c(cc1Br)NC(=O)C2=C1Nc2ccccc2C1=O` [compound 27, 6-Bromo-5-aminoindirubin], the results for the IC50 at GSK-3α/β (setting [11]) and at CDK5/p25 (setting [12]) were 0.054 µM and 0.6 µM, respectively.

For `Nc1cc2c(cc1Br)NC(=O)/C2=C1\Nc2ccccc2C1=NO` [compound 28, 6-Bromo-5-amino-3′-oxime indirubin], the IC50 was 0.056 µM on GSK-3α/β (setting [11]) and 0.57 µM on CDK5/p25 (setting [12]).
